Data reported in patent US20120071496A1, “Aminopyrimidinamides As Pest Control Agents” (Bayer CropScience AG, priority 2009, published 2012).

Assay: logP (HCOOH)
Assay type: physicochemical
Settings: for IogP (HCOOH): table after Table 9

Compound	logP (HCOOH) (Table 2)	further results
Cc1nc(NC2CC2)c(NC(=O)c2cccnc2C)c(-c2ccc(C(F)(F)F)cc2)n1 [1-87]	1.27	
O=C(Nc1c(NC2CC2)ncnc1-c1ccc(Cl)cc1)c1cccnc1C(F)F [1-179]	1.58	
O=C(Nc1c(NC2CC2)ncnc1-c1ccc(F)cc1)c1cccnc1Cl [1-129]	1.27	
CCc1ncccc1C(=O)Nc1c(NC(C)C(F)(F)F)ncnc1-c1ccc(F)cc1 (centres unmarked) [1-299]	1.85	
CC(C)Nc1ncnc(-c2ccc(OC(F)(F)F)cc2)c1NC(=O)c1cccnc1Cl [1-76]	2.05	
O=C(Nc1c(NC2CC2)ncnc1-c1ccc(Cn2cnc(C(F)(F)F)n2)cc1)c1cccnc1C1CC1 [1-287]	1.45	
Cc1ncccc1C(=O)Nc1c(NC2CC2)ncnc1-c1ccc(C(F)(F)F)cc1 [1-83]	1.43	
O=C(Nc1c(NC2CC2)ncnc1-c1ccc(OC(F)(F)F)cc1)c1ccccc1Cl [1-113]	2.41	
CCOc1ncccc1C(=O)Nc1c(NC2CC2)ncnc1-c1ccc(C#N)cc1 [1-160]	1.80	
CCc1ncccc1C(=O)Nc1c(NC2CC2)nc(C)nc1-c1ccc(F)cc1 [1-276]	0.88	
CCc1ncccc1C(=O)Nc1c(NC2CC2)nc(SC)nc1-c1ccc(Cn2cnc(C(F)(F)C(F)(F)F)n2)cc1 [1-290]	2.47	
O=C(Nc1c(NC2CC2)ncnc1-c1ccc(Cl)cc1)c1cccnc1OCC(F)(F)F [1-166]	2.48	
CCc1ncccc1C(=O)Nc1c(Cl)nc(C)nc1NC1CC1 [3-9]		logP (HCOOH) (Table 4): 1.41
CCc1ncccc1C(=O)Nc1c(NC2CC2)nc(C)nc1-c1ccc(OC(F)(F)F)cc1 [1-279]	1.44	
CC(C)Oc1ncccc1C(=O)Nc1c(NC2CC2)ncnc1-c1ccc(OC(F)(F)F)cc1 [1-165]	2.32	
O=C(Nc1c(NC2CC2)ncnc1-c1ccc(F)cc1)c1ccnn1-c1ccccc1Cl [9-3]		IogP (HCOOH): 1.76
CCc1ncccc1C(=O)Nc1c(NC2CC2)nc(C)nc1-c1ccccc1 [1-275]	0.76	
CCc1ncccc1C(=O)Nc1c(NC2CC2)ncnc1-c1ccc(C#N)cc1C [1-181]	1.22	
CCc1ncccc1C(=O)Nc1c(NC2CC2)ncnc1-c1ccc(Cl)cc1C [1-188]	1.40	
O=C(Nc1c(NC2CC2)ncnc1-c1ccc(Cl)cc1)c1cccnc1Cl [1-130]	1.55	
O=C(Nc1c(Cl)ncnc1NC1CC1)c1cccnc1CC(F)(F)F [3-5]		logP (HCOOH) (Table 4): 1.61
CCc1cccc(C)c1C(=O)Nc1c(NC2CC2)ncnc1-c1ccc(F)cc1 [1-320]	2.39	
O=C(Nc1c(NC2CC2)ncnc1-c1ccc(F)cc1)c1cc(Cl)cnc1C1CC1 [1-198]	2.16	
CCc1ncccc1C(=O)Nc1c(NC2CC2)ncnc1-c1ccc(F)cc1C [1-180]	1.10	
O=C(Nc1c(NC2CC2)ncnc1-c1ccc(OC(F)(F)F)cc1)c1cccnc1OCC(F)(F)F [1-169]	2.84	
CCc1ncccc1C(=O)Nc1c(NC(C)C2(Cl)CC2)ncnc1-c1ccc(Cl)cc1Cl (centres unmarked) [1-148]	2.67	

Compound	logP (HCOOH) (Table 2)	further results
O=C(Nc1c(NC2CC2)ncnc1-c1ccc(Cl)cc1)c1ccnn1-c1ccccc1Cl [9-4]		IogP (HCOOH): 2.05
CCc1ncccc1C(=O)Nc1c(NC2CC2)nc(C)nc1-c1ccc(Cl)cc1Cl [1-277]	1.34	
O=C(Nc1c(NC2CC2)ncnc1-c1ccc(F)cc1)c1cccnc1C(=O)NC1CC1 [1-262]	1.45	
CCc1ncccc1C(=O)Nc1c(NC2CCC2)ncnc1-c1ccc(F)cc1 [1-224]	1.36	
CCc1nccc(Cl)c1C(=O)Nc1c(NC2CC2)ncnc1-c1ccc(Cl)cc1 [1-316]	2.54	
CCc1nc(C(F)(F)F)ccc1C(=O)Nc1c(NC2CC2)ncnc1-c1ccc(F)cc1 [1-196]	2.43	
O=C(Nc1c(NC2CC2)ncnc1-c1ccc(Cl)cc1)c1cccnc1C(F)(F)F [1-178]	1.76	
CCc1ncccc1C(=O)Nc1c(NC(C)(C)C)ncnc1-c1ccc(C#N)cc1 [1-136]	1.81	
CCc1ncccc1C(=O)Nc1c(Br)ncnc1NC1CC1 [3-3]		logP (HCOOH) (Table 4): 0.84
CCc1ncccc1C(=O)Nc1c(NC2CC2)ncnc1-c1ccc(Cn2cnc(C(F)(F)F)n2)cc1 [1-273]	1.11	
CCc1cccc(Cl)c1C(=O)Nc1c(NC2CC2)ncnc1-c1ccc(C#N)cc1 [1-321]	2.37	
CCc1ncccc1C(=O)Nc1c(NC2CC2)ncnc1-c1ccccc1 [1-127]	1.01	
CCc1ncccc1C(=O)Nc1c(NC2CC2)ncnc1-c1ccc(F)c(F)c1 [1-4]	1.34	
O=C(Nc1c(NC2CC2)ncnc1-c1ccc(Cl)cc1)c1cc(Cl)cnc1C1CC1 [1-197]	2.52	
CCc1ncccc1C(=O)Nc1c(NC2CC2)ncnc1-c1ccc(F)cc1Cl [1-139]	0.79	
CCc1ncccc1C(=O)Nc1c(NC2CC2)ncnc1-c1ccc(F)cc1 [1-124]	1.03	
O=C(Nc1c(NC2CC2)ncnc1-c1ccc(OC(F)(F)F)cc1)c1ccccc1 [1-112]	2.12	
O=C(Nc1c(NC2CC2)ncnc1-c1ccc(F)cc1)c1cccnc1OCC(F)(F)F [1-167]	2.12	
CCc1ncccc1C(=O)Nc1c(NC(C)C2(Cl)CC2)ncnc1-c1ccc(C#N)cc1 (centres unmarked) [1-150]	2.08	
CCc1ncccc1C(=O)Nc1c(Cl)ncnc1NC1CC1C (centres unmarked) [3-7]		logP (HCOOH) (Table 4): 1.26
CCOc1ncccc1C(=O)Nc1c(NC2CC2)ncnc1-c1ccc(OC(F)(F)F)cc1 [1-161]	2.64	
CCc1ncccc1C(=O)Nc1c(NC2CC2)ncnc1-c1ccc(C#N)cc1 [1-133]	1.10	
Cc1nc(NC2CC2)c(NC(=O)c2ccccc2Cl)c(-c2ccc(C(F)(F)F)cc2)n1 [1-88]	1.93	
O=C(Nc1c(NC2CC2)ncnc1-c1ccc(OC(F)(F)F)cc1)c1cccnc1Cl [1-75]	1.99	
O=C(Nc1c(NC2CC2)ncnc1-c1ccccc1)c1cccnc1 [1-128]	0.63	
Cc1ncccc1C(=O)Nc1c(NC2CC2)ncnc1-c1cc(F)c(C(F)(F)F)c(F)c1 [1-122]	1.95	

Compound	logP (HCOOH) (Table 2)	further results
CCc1ncccc1C(=O)Nc1c(NC(C)(C)C)ncnc1-c1ccc(Cl)cc1 [1-135]	1.86	
CCc1ncccc1C(=O)Nc1c(NC(C)C2CC2)ncnc1-c1ccc(F)cc1 (centres unmarked) [1-143]	1.47	
COc1ncccc1C(=O)Nc1c(NC2CC2)ncnc1-c1ccc(OC(F)(F)F)cc1 [1-157]	2.21	
CCc1ncccc1C(=O)Nc1c(NC2CC2)ncnc1-c1ccc(Cl)cc1F [1-187]	1.46	
O=C(Nc1c(NC2CC2)ncnc1-c1ccc(F)cc1)c1cccnc1C(F)C(F)(F)F (centres unmarked) [1-308]	1.83	
O=C(Nc1c(NC2CC2)ncnc1-c1ccc(F)cc1)c1ccnn1-c1ccc(Cl)cc1 [9-2]		IogP (HCOOH): 2.02
Cc1nc(C(F)(F)F)ccc1C(=O)Nc1c(NC2CC2)ncnc1-c1ccc(Cl)cc1 [1-199]	2.35	
Cc1ncccc1C(=O)Nc1c(NC2CC2)ncnc1-c1ccc(OS(=O)(=O)C(C)C)cc1 [1-121]	1.15	
CCc1ncccc1C(=O)Nc1c(NC2CC2)ncnc1-c1ccc(C(F)(F)F)cc1C [1-189]	1.77	
CC(Nc1ncnc(-c2ccc(OC(F)(F)F)cc2)c1NC(=O)c1cccnc1Cl)C1CC1 (centres unmarked) [1-99]	2.44	
CCc1ncccc1C(=O)Nc1c(NC(C)(C)C2CC2)ncnc1-c1ccc(Cl)cc1 [1-151]	2.22	
CCc1ncccc1C(=O)Nc1c(NC(C)(C)C)ncnc1-c1ccc(F)cc1 [1-134]	1.53	
CCc1ncccc1C(=O)Nc1c(NC(C)C2CC2)ncnc1-c1ccc(C#N)cc1 (centres unmarked) [1-145]	1.67	
CCc1ccccc1C(=O)Nc1c(NC2CC2)ncnc1-c1ccc(C(F)(F)F)cc1 [1-86]	2.68	
O=C(Nc1c(NC2CC2)ncnc1-c1ccc(F)cc1)c1cccnc1C(F)(F)F [1-170]	1.59	
CCOc1ncccc1C(=O)Nc1c(NC2CC2)ncnc1-c1ccc(Cl)cc1 [1-158]	2.54	
Cc1ccccc1C(=O)Nc1c(NC2CC2)ncnc1-c1ccc(C(F)(F)F)cc1 [1-81]	2.33	
Cc1ncccc1C(=O)Nc1c(NC(C)C)ncnc1-c1ccc(OC(F)(F)F)cc1 [1-74]	1.55	
CC(C)c1ncccc1C(=O)Nc1c(NC2CC2)ncnc1-c1ccc(C(F)(F)F)cc1 [1-85]	2.02	
CCc1ncccc1C(=O)Nc1c(NC2CC2)ncnc1-c1ccc(SC(F)(F)F)cc1 [1-114]	1.4	
CCc1ncccc1C(=O)Nc1c(Cl)ncnc1Nc1ccc(C(F)(F)F)cc1 [5-5, N-(4-Chloro-6-{[4-(trifluoromethyl)phenyl]amino}pyrimidin-5-yl)-2-ethylnicotinamide]		chromatographic logP (HCOOH (formic acid), Table 6): 2.12
O=C(Nc1c(Cl)ncnc1NC1CC1)c1cccnc1OCC(F)(F)F [3-4]		logP (HCOOH) (Table 4): 2.25
CCc1ncccc1C(=O)Nc1c(NC2CC2)ncnc1-c1ccccc1Cl [1-140]	1.07	
CCc1ncccc1C(=O)Nc1c(NC2CC2C)ncnc1-c1ccc(Cl)cc1F (centres unmarked) [1-230]	1.72	
CCc1ncccc1C(=O)Nc1c(NC(C)C2(Cl)CC2)ncnc1-c1ccc(F)cc1 (centres unmarked) [1-147]	1.95	
